These are literature values, as cited in patent US20090012066A1, “Method of Use of Deacetylase Inhibitors” (Novartis AG, priority 2005, published 2009).

Data set [1] deals with cardiac hypertrophy in transgenic mice that over-express Hop. Conditions: transgenic mice over-expressing Hop; Kook et al. 2003.
Data set [2] concerns hypertrophy induced by infusion of isoproterenol.

For the molecule `CC(/C=C/C(=O)NO)=C\[C@@H](C)C(=O)c1ccc(N(C)C)cc1` [trichostatin A], the “effect on cardiac hypertrophy” value in data set [1] is on record as “prevents cardiac hypertrophy”. Besides, the “effect on hypertrophy induced by infusion of isoproterenol” value in data set [2] is reported as “attenuates hypertrophy”.
